Changes are numbered by the printed parent chain.
How the values were obtained:
WT AdoMetDC = biological target: T1, WT AdoMetDC (Homo sapiens, UniProt P17707); assay: Stopped-flow intrinsic protein fluorescence binding kinetics, WT AdoMetDC; conditions: for intrinsic fluorescence change on rapid mixing with AdoMetDC: stopped-flow, excitation 298 nm, emission 340 nm
T1 sequence (P17707 1-67 limits assumed): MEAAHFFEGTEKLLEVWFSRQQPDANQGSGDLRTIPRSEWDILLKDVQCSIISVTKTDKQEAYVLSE
T1 sequence (P17707 68-334 limits assumed): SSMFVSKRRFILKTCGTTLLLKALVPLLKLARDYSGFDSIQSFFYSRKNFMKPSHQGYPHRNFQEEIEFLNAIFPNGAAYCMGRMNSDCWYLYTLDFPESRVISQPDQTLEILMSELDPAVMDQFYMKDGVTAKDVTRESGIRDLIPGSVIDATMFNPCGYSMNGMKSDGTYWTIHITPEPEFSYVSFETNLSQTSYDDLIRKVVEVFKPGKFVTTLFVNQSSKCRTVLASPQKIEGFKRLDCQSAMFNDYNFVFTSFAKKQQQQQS

AdoMetDC F223A mutant = biological target: T2, AdoMetDC F223A mutant (Homo sapiens, UniProt P17707, F223A); assay: Stopped-flow intrinsic protein fluorescence binding kinetics, F223A mutant; conditions: single exponential fit
T2 sequence (P17707 1-67 limits assumed): T1 sequence (P17707 1-67 limits assumed)
T2 sequence (P17707 68-334 F223A limits assumed): T1 sequence (P17707 68-334 limits assumed) with F156A

[1] = modeling studies using NMR constraints, molecular mechanics; cited from earlier work
AdoMetDC = biological target: T3, AdoMetDC (Homo sapiens, UniProt P17707); conditions: cited from earlier work
T3 sequence (P17707 1-67 limits assumed): T1 sequence (P17707 1-67 limits assumed)
T3 sequence (P17707 68-334 limits assumed): T1 sequence (P17707 68-334 limits assumed)

| Compound | intrinsic fluorescence change on rapid mixing with AdoMetDC (WT AdoMetDC) | k1 (slope) (AdoMetDC F223A mutant) | k−1 (y-intercept) (AdoMetDC F223A mutant) [s⁻¹] | energy difference between the anti and syn conformations in solution [1] [kcal/mol] | k2 + k−2 (WT AdoMetDC; WT enzyme, hyperbolic fit of slow phase) [s⁻¹] | k−1 (WT AdoMetDC; WT enzyme, linear fit of fast phase, 25 °C, pH 7.5) [s⁻¹] | IC50 (AdoMetDC) [µM] |
| --- | --- | --- | --- | --- | --- | --- | --- |
| Nc1ncnc2c1ncn2[C@@H]1O[C@H](CSCC[C@H](N)C(=O)O)[C@@H](O)[C@H]1O [SAH, S-adenosylhomocysteine] | no significant change |  |  |  |  |  |  |
| C[S+](CC[C@H](N)C(=O)[O-])C[C@H]1O[C@@H](n2cnc3c(N)ncnc32)[C@H](O)[C@@H]1O (stereo partly drawn) [AdoMet, S-adenosylmethionine] | intrinsic fluorescence change was observed | 1.7 ± 0.3 × 10^−4 μM^−1s^−1 | 2.4 ± 0.2 | -34 | 3.7 ± 0.2 | 33 ± 2 |  |
| C[S+](C)C[C@H]1O[C@@H](n2cnc3c(N)ncnc32)[C@H](O)[C@@H]1O [MMTA, 5′-deoxy-5′-(dimethylsulfonio)adenosine] | too weak to measure |  |  |  |  |  | 15 |

— article PMC2730737 (Biochemistry, 2009)
